Laboratory results from patent US20130011427A1 (priority 2009, published 2013).

What was measured:
Type in all cases: cell-based, mouse
[1] = tested on: HLA-DR4/huCD4 (DRB1*0401) Tg mice, CD8-depleted splenocytes
[2] = tested on: HLA-A2.1 (HLA-A*0201) Tg mice, CD4-depleted splenocytes
[3] = tested on: HLA-DR3 (DRB1*0301) Tg mice, CD8-depleted splenocytes
[4] = tested on: HLA-DR2 (DRB1*1501) Tg mice, CD8-depleted splenocytes

Sequence	T cell activation of HLA transgenic mice (SFC/10^6) IFN-γ ELISpot, DR4 [1] [SFC/10^6]	T cell activation of HLA transgenic mice (SFC/10^6) IFN-γ ELISpot, A2 [2] [SFC/10^6]	T cell activation of HLA transgenic mice (SFC/10^6) IFN-γ ELISpot, DR3 [3] [SFC/10^6]	also measured
AEVRSYCYLATVSDLSTK [E 54-71]	205 ± 56			
AHWTEARIMLDNINM [NS3 487-501]		308 ± 188	431 ± 112	
ALLTPGLRCLNLDVYRIL [NS2a 160-177]		63 ± 18	59 ± 3	
ARIMLDNINMPNGLIAQF [NS3 492-509]			216 ± 42	
CLNLDVYRILLLMVGI [NS2a 168-183]			231 ± 16	T cell activation of HLA transgenic mice (SFC/10^6) IFN-γ ELISpot, DR2 [4]: 556 ± 33 SFC/10^6
CYGGHTNEDDSNFAHW [NS3 474-489]		92 ± 18	83 ± 23	
DRRWCFDGPRTNTIL [NS3 560-574]			225 ± 10	
DTGCAIDISRQELRCGSGV [NS1 1-19]			572 ± 20	
DTPSPKEYKKGDTTTGVY [NS3 6-23]	43 ± 6			
EGRVEIDFDYCPGTTVTL [NS1 270-287]	54 ± 6			
EKLQLKGTTYGVCSKAFK [E 293-310]	47 ± 5			
EKVYTMDGEYRLRGEERK [NS3 515-532]		140 ± 24		T cell activation of HLA transgenic mice (SFC/10^6) IFN-γ ELISpot, DR2 [4]: 95 ± 27 SFC/10^6
EQQINHHWHKSGSSIGKA [E 390-407]			50 ± 6	
EVITKLGERKILRPRWI [NS3 581-597]	52 ± 11			
EYRLRGEERKNFLELLR [NS3 523-539]		57 ± 11		T cell activation of HLA transgenic mice (SFC/10^6) IFN-γ ELISpot, DR2 [4]: 160 ± 48 SFC/10^6
FAESNSGGDVVHLALMA [NS2a 65-81]	60 ± 13			
FDGPRTNTILEDNNEVEV [NS3 565-582]			59 ± 3	
FRSLFGGMSWITQGLLGA [E 450-467]		205 ± 145	104 ± 21	T cell activation of HLA transgenic mice (SFC/10^6) IFN-γ ELISpot, DR2 [4]: 261 ± 13 SFC/10^6
GAGVMVEGVFHTLWHTTK [NS3 37-54]			368 ± 66	T cell activation of HLA transgenic mice (SFC/10^6) IFN-γ ELISpot, DR2 [4]: 149 ± 13 SFC/10^6
GCWGQVTLTVTVTAATLL [NS4b 101-118]	134 ± 8			
GQVVTYALNTFTNLAVQL [NS5 605-622]	240 ± 76			T cell activation of HLA transgenic mice (SFC/10^6) IFN-γ ELISpot, DR2 [4]: 556 ± 27 SFC/10^6
GRTILKENIKYEVAIFVH [E 127-144]			198 ± 21	T cell activation of HLA transgenic mice (SFC/10^6) IFN-γ ELISpot, DR2 [4]: 120 ± 1 SFC/10^6
GVFIHNDVEAWMDRYKYY [NS1 18-35]			52 ± 8	
GWPATEVMTAVGLMFAIV [NS2b 1-18]	104 ± 18			

Sequence	T cell activation of HLA transgenic mice (SFC/10^6) IFN-γ ELISpot, DR4 [1] [SFC/10^6]	T cell activation of HLA transgenic mice (SFC/10^6) IFN-γ ELISpot, A2 [2] [SFC/10^6]	T cell activation of HLA transgenic mice (SFC/10^6) IFN-γ ELISpot, DR3 [3] [SFC/10^6]	also measured
GWYDWQQVPFCSNHFTEL [NS5 704-721]	65 ± 27			
HFMGKTWEALDTMYVVA [NS4a 15-31]	187 ± 20			T cell activation of HLA transgenic mice (SFC/10^6) IFN-γ ELISpot, DR2 [4]: 278 ± 26 SFC/10^6
HKSGSSIGKAFTTTLKGA [E 398-415]			88 ± 1	T cell activation of HLA transgenic mice (SFC/10^6) IFN-γ ELISpot, DR2 [4]: 168 ± 18 SFC/10^6
IKYEVAIFVHGPTTVESH [E 135-152]			86 ± 13	
IRYQTSAVPREHNGNEIV [NS3 241-258]		127 ± 18		
IVVEPGKNVKNVQTKPGV [NS3 98-115]		145 ± 25		
IVVGRGEQQINHHWHK [E 384-399]			87 ± 16	
KVELGEAAAIFMTATPPG [NS3 304-321]		94 ± 22		
KVLIELEPPFGDSYIVV [E 370-386]	148 ± 10			
LATVSDLSTKAACPTM [E 62-77]	47 ± 4	465 ± 343		
LAVGGVLLFLSVNVHA [E 486-501]		323 ± 173	244 ± 16	T cell activation of HLA transgenic mice (SFC/10^6) IFN-γ ELISpot, DR2 [4]: 214 ± 27 SFC/10^6
LGALLLWMGINARDRSIA [E 465-482]		310 ± 186	330 ± 91	T cell activation of HLA transgenic mice (SFC/10^6) IFN-γ ELISpot, DR2 [4]: 490 ± 64 SFC/10^6
LQHKWNGQDEVQMIVV [NS3 85-100]		72 ± 9		
LQTEIPDRAWNSGYEWI [NS3 336-352]		167 ± 35		
LSTKAACPTMGEAHNDKR [E 68-85]		372 ± 242		
LVKTESWILRNPGYALVA [prM 121-138]	56 ± 6			T cell activation of HLA transgenic mice (SFC/10^6) IFN-γ ELISpot, DR2 [4]: 130 ± 23 SFC/10^6
LVQSYGWNIVTMKSGVDV [NS5 115-132]			79 ± 23	
MLRKKQITVLDLHPGAGK [NS3 183-200]		62 ± 24		T cell activation of HLA transgenic mice (SFC/10^6) IFN-γ ELISpot, DR2 [4]: 55 ± 2 SFC/10^6
NEDDSNFAHWTEARIML [NS3 480-496]			121 ± 1	
NMPNGLIAQFYQPEREKV [NS3 500-517]			145 ± 49	T cell activation of HLA transgenic mice (SFC/10^6) IFN-γ ELISpot, DR2 [4]: 51 ± 10 SFC/10^6
NTFTNLAVQLVRMMEGEGV [NS5 613-631]	119 ± 21			
NWVPTGRTTWSIHAGGEW [NS5 791-808]	78 ± 17			
PATAWSLYAVTTAVLTPL [NS4b 38-55]			67 ± 13	T cell activation of HLA transgenic mice (SFC/10^6) IFN-γ ELISpot, DR2 [4]: 57 ± 11 SFC/10^6
PFVDVGVSALLLAAGCW [NS4b 87-103]	59 ± 14			

Sequence	T cell activation of HLA transgenic mice (SFC/10^6) IFN-γ ELISpot, DR4 [1] [SFC/10^6]	T cell activation of HLA transgenic mice (SFC/10^6) IFN-γ ELISpot, A2 [2] [SFC/10^6]	T cell activation of HLA transgenic mice (SFC/10^6) IFN-γ ELISpot, DR3 [3] [SFC/10^6]	also measured
PIVDKNGDVIGLYGNGVI [NS3 138-155]		159 ± 10		
PQIIKEAINRRLRTAVLA [NS3 206-223]		108 ± 22		T cell activation of HLA transgenic mice (SFC/10^6) IFN-γ ELISpot, DR2 [4]: 323 ± 21 SFC/10^6
RAWNSGYEWITEYTGKTV [NS3 343-360]		55 ± 21		
RGWGNGCGLFGKGSI [E 99-113]			79 ± 7	
RLNDTWKLERAVLGEVK [NS1 205-221]	61 ± 15			
RQELRCGSGVFIHNDVEA [NS1 10-27]	63 ± 8			
SGCWYGMEIRPQRHDEK [NS1 327-343]	78 ± 4			
SQIGLIEVLGKMPEHFM [NS4a 1-17]			132 ± 17	
THTLWGDGILESDLIIPV [NS1 228-245]		84 ± 47		
TLTHRLMSPHRVPNYNLF [NS3 265-282]		150 ± 30		T cell activation of HLA transgenic mice (SFC/10^6) IFN-γ ELISpot, DR2 [4]: 169 ± 16 SFC/10^6
TVWFVPSVKMGNEIALCL [NS3 359-376]		75 ± 44		
VAAEMAEALRGLPIRY [NS3 228-243]	46 ± 9			
VFHTLWHTTKGAALM [NS3 45-59]			63 ± 10	
VFTSVGKAVHQVFGGAFR [E 434-451]			79 ± 19	T cell activation of HLA transgenic mice (SFC/10^6) IFN-γ ELISpot, DR2 [4]: 116 ± 5 SFC/10^6
VHQVFGGAFRSLFGGMSW [E 442-459]		442 ± 313	101 ± 15	T cell activation of HLA transgenic mice (SFC/10^6) IFN-γ ELISpot, DR2 [4]: 117 ± 5 SFC/10^6
VIGLYGNGVIMPNGSYI [NS3 146-162]		58 ± 38		
VLAPTRVVAAEMAEALR [NS3 221-237]		26 ± 4		
VTVNPFVSVATANAKVLI [E 356-373]	217 ± 51			
VVNPSVKTVREAGILITA [NS4b 187-204]	83 ± 13			
VWLAYKVAAAGVSYHDRR [NS3 545-562]			110 ± 9	
WDFGSVGGVFTSVGKAVH [E 426-443]			83 ± 13	
WHTTKGAALMSGEGRL [NS3 50-65]			191 ± 37	
YFHRRDLRLMANAICSAV [NS5 771-788]	135 ± 47			
YISAIVQGERMDEPIPA [NS3 161-177]		56 ± 28		T cell activation of HLA transgenic mice (SFC/10^6) IFN-γ ELISpot, DR2 [4]: 72 ± 15 SFC/10^6
